According to ChEMBL document CHEMBL1201862, “PubChem BioAssay data set” (2004):
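Exposure lasted 48 hours, with cells grown in 96-well plates and compounds tested at five concentrations. At the GI50, growth is halved.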 Active and inactive are the calls of the source. Cut-off read from the data, not from the text of the source: active = GI50 up to about 1.1 µM and inactive = higher.

Columns and labels:
Assay in all cases: inhibition of tumour cell growth, NCI panel, 48 h
SF-539 = test system: SF-539
OVCAR-3 = test system: OVCAR-3
HCT-15 = test system: HCT-15
TK-10 = test system: TK-10
UACC-62 = test system: UACC-62
Hs-578T = test system: Hs-578T
IGROV-1 = test system: IGROV-1
786-0 = test system: 786-0
UACC-257 = test system: UACC-257
HT-29 = test system: HT-29
SNB-75 = test system: SNB-75
COLO 205 = test system: COLO 205
U-251 = test system: U-251
KM12 = test system: KM12
SF-295 = test system: SF-295
SF-268 = test system: SF-268
MDA-N = test system: MDA-N
M14 = test system: M14

Row | Structure (SMILES) | GI50 (SF-539) | GI50 (OVCAR-3) | GI50 (HCT-15) [µM] | GI50 (TK-10) | GI50 (UACC-62) | GI50 (Hs-578T) | GI50 (IGROV-1) | GI50 (786-0) | GI50 (UACC-257) | GI50 (HT-29) | GI50 (SNB-75) | GI50 (COLO 205) | GI50 (U-251) | GI50 (KM12) | GI50 (SF-295) | GI50 (SF-268) | GI50 (MDA-N) | GI50 (M14)
1 | O=[N+]([O-])/C=C/COCc1cc2c(cc1Br)OCO2 | 27.9 µM (inactive) | 16.4 µM (inactive) | 18 | 17.4 µM (inactive) | 16.5 µM (inactive) | 23.6 µM (inactive) | 29.8 µM (inactive) | 13.8 µM (inactive) | 17.3 µM (inactive) | 20.8 µM (inactive) | 17.4 µM (inactive) | 23.1 µM (inactive) | 17 µM (inactive) | 19 µM (inactive) | 36.8 µM (inactive) | 19.1 µM (inactive) | 18.2 µM (inactive) | 16.3 µM (inactive)
2 | C=CCOC1=C(OC(C)=O)C(=O)OC1C1COC(C)(C)O1 (stereo not drawn) | 37.1 µM (inactive) | 17.5 µM (inactive) | 19.5 | 67 µM (inactive) | 57 µM (inactive) | 32.4 µM (inactive) | 37.9 µM (inactive) | 32.1 µM (inactive) | 60.3 µM (inactive) | 30.1 µM (inactive) | > 36.3 µM (inactive) | 29.6 µM (inactive) | 42.5 µM (inactive) | 34.2 µM (inactive) | 79.1 µM (inactive) | 48.4 µM (inactive) | 30.1 µM (inactive) | 36 µM (inactive)
3 | Cc1nc2c(=O)n(-c3ccccc3)c(=O)n(-c3ccccc3)c2o1 | > 100 µM (inactive) | > 100 µM (inactive) | > 100 | 58.3 µM (inactive) | > 100 µM (inactive) | > 100 µM (inactive) | > 100 µM (inactive) | > 100 µM (inactive) | > 100 µM (inactive) | > 100 µM (inactive) | > 100 µM (inactive) | > 100 µM (inactive) | > 100 µM (inactive) | > 100 µM (inactive) | > 100 µM (inactive) | > 100 µM (inactive) | > 100 µM (inactive) | > 100 µM (inactive)
4 | CCOC(=O)C1CC(C(=O)c2ccccc2)N2c3ccccc3-c3ccccc3C12 (stereo not drawn) | > 100 µM (inactive) | 30 µM (inactive) | > 100 | > 100 µM (inactive) | 46.7 µM (inactive) | 25.9 µM (inactive) | 37.2 µM (inactive) | 40.1 µM (inactive) | > 100 µM (inactive) | 78.2 µM (inactive) | 28.1 µM (inactive) | 30.2 µM (inactive) | 30.3 µM (inactive) | 48.6 µM (inactive) | 82.2 µM (inactive) | 74.6 µM (inactive) | > 100 µM (inactive) | 26.4 µM (inactive)
5 | CC(NC1=CC(=O)c2cccnc2C1=O)C(O)c1ccccc1 (stereo not drawn) | 1.84 µM (inactive) | 1.64 µM (inactive) | 1.37 | 14.8 µM (inactive) | 1.65 µM (inactive) | 2.53 µM (inactive) | 1.28 µM (inactive) | 2.79 µM (inactive) | 1.23 µM (inactive) | 2.86 µM (inactive) | 1.35 µM (inactive) | 1.86 µM (inactive) | 2.78 µM (inactive) | 3.97 µM (inactive) | 1.28 µM (inactive) | 2.36 µM (inactive) | 0.57 µM (active) | 1.5 µM (inactive)
6 | NC1N=C(c2ccc(Cl)cc2)C2=C(N1)c1ccccc1CC2 (stereo not drawn) | 14.6 µM (inactive) | 16.7 µM (inactive) | 3.58 | 48.2 µM (inactive) | 15 µM (inactive) | 8.71 µM (inactive) | 5.68 µM (inactive) | 13.2 µM (inactive) | > 67.3 µM (inactive) | 3.16 µM (inactive) | 1.71 µM (inactive) | 33.9 µM (inactive) | 25.6 µM (inactive) | 4.03 µM (inactive) | 22.3 µM (inactive) | > 54 µM (inactive) | 2.29 µM (inactive) | 19.9 µM (inactive)
7 | O=C(Cn1c(=O)oc2ccc(C(=O)c3ccccc3Cl)cc21)c1ccc([N+](=O)[O-])cc1 | 28.8 µM (inactive) | 17 µM (inactive) | 17.7 | 51.1 µM (inactive) | 12 µM (inactive) | 37.2 µM (inactive) | 23.6 µM (inactive) | 19.6 µM (inactive) | 31.1 µM (inactive) | 24.2 µM (inactive) | 0.824 µM (active) | 20.6 µM (inactive) | 29.9 µM (inactive) | 20.1 µM (inactive) | 21.8 µM (inactive) | 24.8 µM (inactive) | 18.1 µM (inactive) | 18.4 µM (inactive)
8 | COc1cc2c(cc1OC)CC(=O)c1cc(OC)c(OC)cc1/C=C\2 | > 12.5 µM (inactive) | > 12.5 µM (inactive) | 5.85 | > 12.5 µM (inactive) | > 12.5 µM (inactive) | > 12.5 µM (inactive) | 10.8 µM (inactive) | > 12.5 µM (inactive) | > 12.5 µM (inactive) | 5.79 µM (inactive) | 4.83 µM (inactive) | 11.1 µM (inactive) | > 12.5 µM (inactive) | 4.55 µM (inactive) | 7.16 µM (inactive) | > 12.5 µM (inactive) | 2.8 µM (inactive) | 9.57 µM (inactive)
9 | O=C(O)CN1CCNCCN(CC(=O)O)CC1 | 13 µM (inactive) | 6.49 µM (inactive) | 3.79 | 8.2 µM (inactive) | 12.6 µM (inactive) | > 66.1 µM (inactive) | 12.6 µM (inactive) | 5.48 µM (inactive) | 15.2 µM (inactive) | 2.38 µM (inactive) | 12.3 µM (inactive) | 2.01 µM (inactive) | 28.2 µM (inactive) | 16.8 µM (inactive) | > 69 µM (inactive) | 89.1 µM (inactive) | 11.4 µM (inactive) | 25.7 µM (inactive)
10 | Cc1cccc(/N=N/c2ccc(O)c(CN(C)C)c2)c1 | 18.2 µM (inactive) | 17.2 µM (inactive) | 11.2 | 22.9 µM (inactive) | 8.95 µM (inactive) | 16 µM (inactive) | 21.8 µM (inactive) | 18.9 µM (inactive) | 17.5 µM (inactive) | 17.5 µM (inactive) | 29 µM (inactive) | 13.2 µM (inactive) | 45.9 µM (inactive) | 13.4 µM (inactive) | 28.4 µM (inactive) | 26.2 µM (inactive) | 27.3 µM (inactive) | 27.4 µM (inactive)
11 | S=P(C1CCCCC1)(C1CCCCC1)C(c1cccnc1)N1CCCC1 (stereo not drawn) | 16.7 µM (inactive) | 92.5 µM (inactive) | 35.7 | 18.5 µM (inactive) | 22.5 µM (inactive) | 35.4 µM (inactive) | 17.9 µM (inactive) | 17.6 µM (inactive) | > 100 µM (inactive) | 33.8 µM (inactive) | 19.4 µM (inactive) | 18.9 µM (inactive) | 20.2 µM (inactive) | 17.5 µM (inactive) | 21.2 µM (inactive) | 18.5 µM (inactive) | 20.1 µM (inactive) | 18.4 µM (inactive)
12 | Clc1ccc(C2=Cc3nc2c(-c2ccccc2)c2ccc([nH]2)c(-c2ccccc2)c2nc(c(-c4ccccc4)c4ccc([nH]4)c3-c3ccccc3)C=C2)cc1 | > 62.5 µM (inactive) | > 62.5 µM (inactive) | > 62.5 | > 62.5 µM (inactive) | > 62.5 µM (inactive) | > 62.5 µM (inactive) | > 62.5 µM (inactive) | > 62.5 µM (inactive) | > 62.5 µM (inactive) | > 62.5 µM (inactive) | 32.9 µM (inactive) | > 62.5 µM (inactive) | > 62.5 µM (inactive) | > 62.5 µM (inactive) | > 62.5 µM (inactive) | > 62.5 µM (inactive) | > 62.5 µM (inactive) | > 62.5 µM (inactive)
13 | O=C(CC(=O)Nc1ccccc1Cl)NNC(Sc1ccccc1)c1cc(/N=N/c2ccc(Br)cc2)ccc1O (stereo not drawn) | 1.45 µM (inactive) | 0.404 µM (active) | 0.679 | 1.69 µM (inactive) | 1.17 µM (inactive) | 3.13 µM (inactive) | 2.71 µM (inactive) | 0.653 µM (active) | 2.37 µM (inactive) | > 10 µM (inactive) | 4.8 µM (inactive) | 4.35 µM (inactive) | 1.59 µM (inactive) | 1.35 µM (inactive) | 1.88 µM (inactive) | 0.74 µM (active) | 2.06 µM (inactive) | 0.785 µM (active)
14 | CCCCCCCCCCCCCCCCCCNc1ccn(C2OC(COP(=O)(O)OCC3OC(n4cc(C)c(=O)[nH]c4=O)CC3F)C(O)C2O)c(=O)n1 (stereo not drawn) | 9.46 µM (inactive) | 7.24 µM (inactive) | 6.01 | 3.08 µM (inactive) | 6.24 µM (inactive) | 11.1 µM (inactive) | 5.78 µM (inactive) | 4.06 µM (inactive) | 10.4 µM (inactive) | 7.69 µM (inactive) | 19.8 µM (inactive) | 3.34 µM (inactive) | 7.26 µM (inactive) | 5.22 µM (inactive) | 9.89 µM (inactive) | 8.59 µM (inactive) | 8.15 µM (inactive) | 8.17 µM (inactive)
15 | C1CCC(CC2CCC(NC3=NCCO3)CC2)CC1 (stereo not drawn) | 16.8 µM (inactive) | 15.4 µM (inactive) | 12.3 | 15.3 µM (inactive) | 17.3 µM (inactive) | 16.3 µM (inactive) | 19.7 µM (inactive) | 15.2 µM (inactive) | 16.4 µM (inactive) | 3.93 µM (inactive) | 18.2 µM (inactive) | 14.2 µM (inactive) | 18 µM (inactive) | 18.3 µM (inactive) | 19.7 µM (inactive) | 26 µM (inactive) | 20.3 µM (inactive) | 18.9 µM (inactive)
16 | COc1ccc(Cc2ccc3nc(O)cc(C)c3c2)cc1S(=O)(=O)O | > 100 µM (inactive) | > 100 µM (inactive) | > 100 | > 100 µM (inactive) | > 100 µM (inactive) | > 100 µM (inactive) | > 100 µM (inactive) | > 100 µM (inactive) | > 100 µM (inactive) | > 100 µM (inactive) | > 100 µM (inactive) | > 100 µM (inactive) | > 100 µM (inactive) | > 100 µM (inactive) | > 100 µM (inactive) | > 100 µM (inactive) | > 100 µM (inactive) | > 100 µM (inactive)
